# According to patent US20170367338A1, “COMPOSITIONS AND METHODS FOR IMPROVING AGRONOMIC CHARACTERISTICS OF PLANTS” (MONSANTO TECHNOLOGY LLC, priority 2014, published 2017):
# Where two headings read alike, the source gives them in different places. Marks after values point to notes of the source that are not given here.
# Experiments:
# [1] = test system: Heterodera glycines (SCN); assay: Seed treatment test of soybean cyst nematode on soybean; format: in vivo; conditions: Heterodera glycines, 672 h, read-out: percent cyst reduction relative to control blank treatment
# Experimental: For a given concentration the chemical is dissolved in 500 ul of acetone and one gram of cucumber seed (RKN test) or soybean seed (SCN test) is added (e.g., 20 mg active ingredient in 500 ul acetone plus 1 gram of seed). The seed solutions are agitated until all seeds were thoroughly covered with the chemical solution. The acetone is then allowed to evaporate by air drying the seeds. The seeds are planted in 2-inch pots containing sandy soil and then the pots are inoculated with 1000 Meloidogyne incognita (RKN) or 1000 Heterodera glycines (SCN) eggs per pot three days after planting. Plants are rated for galling 14 days after egg inoculation for RKN or 28 days after egg inoculation for SCN.
# Meloidogyne incognita [2] = assay: Summer field evaluation of pre-plant incorporated compounds on squash; format: in vivo
# Experimental: Test plots of 33 cm diameter holes were bored 41 cm deep into clay soil and filled with a mixture of 80% sand and 20% silt loam soil. Technical compound for each treatment was dissolved in 50 ml acetone containing 250 ul of Triton X-100 surfactant. This solution was added to 450 ml water and poured onto 95 liters of sand/soil mixture in a rotating drum mixer. While continuing to rotate the mixing drum 66 grams of chopped, galled, tomato roots was added and thoroughly distributed. The treated soil was sufficient to fill the top 15 cm of each of the 6 replicate plots, thus simulating a PPI treatment. The plots were then watered lightly and a mixture of M. incognita eggs and larvae were injected 5 cm deep at 5 points within the plot (100k eggs/larvae in 10m1 per plot). Three-week old squash (cv. Liberator III) with 1 fully expanded true leaf was planted 4 days after soil treatment, one per plot.
# Meloidogyne incognita [3] = assay: Fall nematicidal field test on squash; conditions: for RG28 % root galls at 28 days after treatment / RG43 % root galls at 43 days after treatment / RW28 root weight at 28 days after treatment / RW43 root weight at 43 days after treatment / TW28 top weight at 28 days after treatment: squash
# Excerpt: The soil was a native prairie/pasture covering silty clay loam soil. […] Total volume of each hole was about 1.2 cubic feet. […] Holes were filled and then re-filled 5 days later after settling. […] Organic matter was 0.2% and pH was 6.8.
# Treatments were arranged in a block design with the blocks laid out perpendicular to the primary slope and parallel to secondary slope. There are 7 inoculated controls and 5 non-inoculated controls and the distributions of disease severity appeared independent of location.
# The resultant mix is the same as used in the standard greenhouse assays (10% acetone, 0.05% X100). The oxamyl treatments were prepared from Vydate 2L formulated the same way. The 500 ml was placed in a watering can and the entire volume was evenly sprinkled over the surface of the plot. No runoff occurred and pooling, if any, was short lived. The final drench volume was 0.58 ml/cm^2, compared to 0.2 ml/cm^2 used in our greenhouse, however the microplots are much deeper so the drench volume applied per soil volume treated is roughly the same.
# Meloidogyne incognita eggs were harvested over a two week period and stored at approximately 5° C. until needed. A stock of 5.6 million vermiform eggs was adjusted to 9000/m1 in 620 ml. One day after treatment, two holes were made in each plot about 7 cm apart and equidistant from the squash plants. Five ml of egg suspension was pipetted into each hole, which was then sealed and the plot lightly watered. A total of 90,000 vermiform eggs were added to each plot.
# The first root evaluation was at 28 DAT. The tops were cut off and weighed immediately in the field, and the roots were carefully dug out so as not to disturb the remaining plant.
# Meloidogyne incognita [4] = assay: M. incognita miniaturized greenhouse assay on cucumber seedlings; format: in vivo
# Experimental: The test compound is dissolved in an acetone solution and added to water. A sprouted cucumber seedling is placed into a vial with dry sand and the water-chemical solution is added immediately. Twenty four hours later Meloidogyne incognita eggs are added to the vials and 10 to 12 days later the roots are evaluated for nematode galling.
# Cucumber seeds are sprouted for 3 days in moist paper towels. Acceptable sprouts should be 3 to 4 cm long with several lateral roots just emerging. Stock solutions of chemistry are prepared in a mixture of acetone and Triton X100 (412 mg in 500 mL) to a final concentration of 5 mg/mL. The chemical stock solution is then added to 10 mL deionized water plus 0.015% Triton X100 and mixed thoroughly. This is enough to test each condition in triplicate. Ten mL dry sand is added to each vial. At this time the solubility of the chemistry is visually determined and recorded as either ppt (large precipitates) or cloudy (fine precipitates). Seedlings are planted by tilting the vial and laying the seedling in the correct orientation so that the cotyledons are just above the sand and then tilting back to cover the radicles with sand. 3.3 ml water/chemical mix is added to each vial and the vials placed in racks under fluorescent light banks. The vials are inoculated two days after planting by adding 500 vermiform M. incognita eggs to each vial in 50 uL of deionized or spring water. The vials are then kept under the fluorescent lamps at ambient room temperature and watered as needed with 1mL deionized water, usually twice during duration of test. Harvest of the cucumber plants is done 10 to 12 days after inoculation by washing sand off the roots. A root gall rating and visual phytotoxicity rating is assigned using the following scales: Gall rating scale (Gall: % root mass galled): 0=0-5%; 1=6-20%; 2=21-50%; and 3=51-100%. The average of the triplicate gall rating is then calculated: green=0.00-0.33 (no galls); yellow=0.67-1.33 (mild galling); orange=1.67-2.33 (moderate galling); red=2.67-3.00 (severe galling). Visual phytotoxicity scale is also assigned (Vis. tox; visual reduction in root mass compared to the control): rs1=mild stunting; rs2=moderate stunting; rs3=severe stunting.
# [5] = test system: soybean cyst nematode (SCN); assay: SCN greenhouse sand assay on soybean plants; format: in vivo; conditions: Glycine max, 672 h, read-out: percent control (cyst number reduction) relative to the control blank treatment; for pest or weed control at 2000 g/ha: 2 kg/ha
# Excerpt: Soybeans seeds are planted in 100% sand in two inch square plastic pots. Chemical treatment is done when the soybeans show the first trifoliate beginning to emerge about 10 to 12 days after planting. At least four hours after chemical application the nematode soybean cyst nematode (SCN) eggs are applied and 28 days after the egg inoculation the test is harvested.
# One milligram of chemistry per four pots is equal to one kilogram per hectare of chemical. A standard test uses four replications. For rates above 2 kg/ha, the desired amount of chemical is weighed into a 30 ml vial (example: 8 kg/ha rate =8 mg chemical in 30 ml vial). The chemical is dissolved in 2 ml of appropriate solvent, generally acetone. For rates below 2 kg/ha, 2 milligrams of chemistry is weighed into the vial and dissolved in 2 ml of the solvent. The appropriate amount of chemical concentrate is then pipetted into a separate 30 ml vial and solvent is added to bring the volume to 2 ml (example 0.5 kg/ha=0.5 ml of concentrate+1.5 ml solvent). Each dissolved concentrate is then brought to a total of 20 milliliters using 0.05% Triton X 100 surfactant solution.
# Pots to be treated are moist but not saturated. To each of four pots, five milliliters of the appropriate chemical solution is pipetted to the media surface making sure to avoid contact with the base of the plant. Immediately following chemical application, using a mist nozzle, the pot surface is wetted sufficiently to saturate the pot watering in the chemistry. The chemical application is done in the morning.
# Nematode eggs, either SCN or RKN, are added to distilled water to create a concentration of 1000 vermiform eggs […]. At least four hours after chemical treatment the eggs are applied to the treated pots plus non-treated check plants. A small hole about 1 cm deep is punched into the pot surface. One milliliter of the nematode egg slurry is pipetted into the hole. Immediately afterwards the hole is gently covered. Watering of the test plants is then restricted to only water as needed to prevent wilt for a period of 24 hours. After the 24 hour restricted watering, normal sub-irrigation watering is done for the duration of the test.
# [6] = format: in vivo; conditions: 500 mg/kg oral, three female mice, observed up to 14 days
# Experimental: Acute oral toxicity testing was performed in mice in accordance with test method P203.UDP, as administered by Eurofins/Product Safety Laboratories (Dayton, New Jersey). CD-1/Swiss derived albino mice were obtained and group housed in suspended solid bottom caging. The mice were fed rodent chow and filtered tap water was supplied ad libitum. Following acclimation to the laboratory setting, a group of animals was fasted overnight by removing food from the cages. After the fasting period, three female mice were selected based on vitality and initial body weights. The individual compound doses were calculated from these body weights.
# The test substance was prepared as a 1% (50 mg/kg) or 5% (500 mg/kg) weight to weight (w/w) mixture in a 0.5% w/w solution of carboxymethylcellulose (CMC) in distilled water. A tissue homogenizer was used to create a homogeneous mixture. A dose of 50 or 500 mg/kg was administered to three healthy mice per dose level by oral intubation using a ball-tipped gavage needle attached to a syringe. After administration, the animals were returned to their cages, and feed was replaced immediately after dosing.
# Body weights were recorded prior to initiation and on Days 7 and 14 or a soon as possible after death.
# C. elegans = assay: Three day C. elegans well assay; format: in vivo; conditions: Caenorhabditis elegans, L1 larvae
# Experimental: Various compounds were tested for nematicidal activity against C. elegans using contact assays in wells. The assays were performed as described below. The test compounds were solubilized in DMSO at 10 mg/ml to create 100× stock solutions. A dilution series was created by diluting the stock solution with DMSO. For each well assay 4 ul of the appropriate dilution is added to a well of a test plate. A 400 ul aliquot of bacterial stock (in M9 buffer with ampicillin and nystatin) are added to each well of the test plate. Worms are added and the test plate placed on a rotary shaker and held at 20° C. Worms are examined and scored at 4 hrs, 24 hrs, 48 hrs and 72 hours. L1 worms and L4 worms were used in the assay. L1 worms are prepared by plating eggs on a plate without a bacterial feeding layer. The eggs hatch and arrest at the L1 stage. This L1 stage population is then used to create a stock for the experiments. To create an L4 stage stock a small number of worms are taken from an overgrown and starved plate of worms and seeded on a plate with a bacterial feeder layer. A 25 ul aliquot of worms is added to each well in the assay.
structure (smiles),measurement,setting,value
CNC(=O)O/N=C(\SC)C(=O)N(C)C [Oxamyl],pest or weed control at 0.375 mg/g,[1],-4%
same,pest or weed control at 1.5 mg/g,[1],71%
same,0-3 vigor 16DAP,"Meloidogyne incognita [2]; 4 kg/ha PPI, squash",2.7
same,0-3 vigor 21DAP,"Meloidogyne incognita [2]; 4 kg/ha PPI, squash",2.5
same,feeder root (3 = ave) 31DAP,"Meloidogyne incognita [2]; 4 kg/ha PPI, squash",3.0
same,gall % 31DAP,"Meloidogyne incognita [2]; 4 kg/ha PPI, squash",85%
same,root wgt (g) 31DAP,"Meloidogyne incognita [2]; 4 kg/ha PPI, squash",37.0 g
same,top wgt (lbs) 31DAP,"Meloidogyne incognita [2]; 4 kg/ha PPI, squash",1.16 lbs
same,total fruit (lbs),"Meloidogyne incognita [2]; 4 kg/ha PPI, squash",1.09 lbs
same,RG28 % root galls at 28 days after treatment,Meloidogyne incognita [3]; 2 kg ai/ha,45.0%
same,RG43 % root galls at 43 days after treatment,Meloidogyne incognita [3]; 2 kg ai/ha,42.3%
same,RW28 root weight at 28 days after treatment,Meloidogyne incognita [3]; 2 kg ai/ha,5.6
same,RW43 root weight at 43 days after treatment,Meloidogyne incognita [3]; 2 kg ai/ha,14.3
same,TW28 top weight at 28 days after treatment,Meloidogyne incognita [3]; 2 kg ai/ha,136.8
same,RG28 % root galls at 28 days after treatment,Meloidogyne incognita [3]; 5 kg ai/ha,10.5%
same,RG43 % root galls at 43 days after treatment,Meloidogyne incognita [3]; 5 kg ai/ha,17.3%
same,RW28 root weight at 28 days after treatment,Meloidogyne incognita [3]; 5 kg ai/ha,6.6
same,RW43 root weight at 43 days after treatment,Meloidogyne incognita [3]; 5 kg ai/ha,12.7
same,TW28 top weight at 28 days after treatment,Meloidogyne incognita [3]; 5 kg ai/ha,232.1
same,gall ratings,"Meloidogyne incognita [4]; 1 ppm (oxamyl), Table 1A",0.67
same,1 ppm gall ratings,Meloidogyne incognita [4]; Table 1B test a,0.67
same,1 ppm gall ratings,Meloidogyne incognita [4]; Table 1B test b,1 (1=6-20%)
same,1 ppm gall ratings,Meloidogyne incognita [4]; Table 1B test c,1.33
same,1 ppm gall ratings,Meloidogyne incognita [4]; Table 1B test d,1.33
same,1 ppm gall ratings,Meloidogyne incognita [4]; Table 1B test e,1 (1=6-20%)
same,1 ppm gall rating,Meloidogyne incognita [4]; Table 1C test a,1.33
same,1 ppm gall rating,Meloidogyne incognita [4]; Table 1C test b,1 (1=6-20%)
same,1 ppm gall rating,Meloidogyne incognita [4]; Table 1C test c,0.67^c
same,1 ppm gall rating,Meloidogyne incognita [4]; Table 1D test a,1.33
same,1 ppm gall rating,Meloidogyne incognita [4]; Table 1D test b,1 (1=6-20%)
c1ccc(-c2cnc(-c3cccs3)o2)cc1 [compound 4417],pest or weed control at 2000 g/ha,[5]; test b,94%
same,RW28 root weight at 28 days after treatment,Meloidogyne incognita [3]; 2 kg ai/ha,5.3
same,RW43 root weight at 43 days after treatment,Meloidogyne incognita [3]; 2 kg ai/ha,16.4
same,TW28 top weight at 28 days after treatment,Meloidogyne incognita [3]; 2 kg ai/ha,97.5
same,Leaf diameter of the first true leaves,"Meloidogyne incognita [3]; 2 kg/ha, five days after treatment (5 DAT)",slight reduction
same,phytotoxicity,"Meloidogyne incognita [3]; 2 kg/ha, two days after treatment, squash seedlings",slight phytotoxicity
same,acute oral toxicity: mortality and signs,[6],One animal died within four days
Clc1ccc(-c2nnc(-c3cccs3)o2)cc1 [compound 4559],pest or weed control at 2000 g/ha,[5]; test a,98%
same,RW28 root weight at 28 days after treatment,Meloidogyne incognita [3]; 2 kg ai/ha,6.4
same,RW43 root weight at 43 days after treatment,Meloidogyne incognita [3]; 2 kg ai/ha,13.2
same,TW28 top weight at 28 days after treatment,Meloidogyne incognita [3]; 2 kg ai/ha,150.8
same,control of root galling compared with oxamyl at an equivalent rate,Meloidogyne incognita [3]; 43 day time point,significantly better than oxamyl
Fc1ccc(-c2cnc(-c3cccs3)o2)cc1 [compound 4775],pest or weed control at 2000 g/ha,[5]; test b,95%
same,acute oral toxicity: mortality and signs,[6],all animals survived
FC(F)(F)c1cccc(-c2noc(-c3ccco3)n2)c1 [compound 5181],pest or weed control at 2000 g/ha,[5]; test a,100%
c1cncc(-c2noc(-c3ccco3)n2)c1 [compound 5292],pest or weed control at 2000 g/ha,[5]; test a,92%
Cc1occc1-c1nc(-c2ccc(Cl)cc2)no1 [compound 5867],1 ppm gall rating,Meloidogyne incognita [4]; Table 1C test a,1 ^a (1=6-20%)
COc1ccc(-c2noc(-c3ccoc3C)n2)cc1 [compound 5869],1 ppm gall rating,Meloidogyne incognita [4]; Table 1C test a,1 ^a (1=6-20%)
Cc1cc(Br)ccc1-c1nsc(-c2ccco2)n1 [compound 5939],pest or weed control at 100 g/ha,"[5]; 0.1 kg/ha, test d",64%
same,pest or weed control at 250 g/ha,"[5]; 0.25 kg/ha, test d",88%
same,EC50,"C. elegans; 24 h, one day of exposure, read-out: EC50 L1 1D",0.4 µg/mL
same,EC50,"C. elegans; 48 h, two days of exposure, read-out: EC50 L1 2D",0.4 µg/mL
same,EC50,"C. elegans; 72 h, three days of exposure, read-out: EC50 L1 3D",0.4 µg/mL
Clc1ccc(-c2nsc(-c3ccco3)n2)c(Cl)c1 [compound 5960],control of M. incognita by PPI application,Meloidogyne incognita [2]; 4 kg/ha,significant control
same,acute oral toxicity: mortality and signs,[6],all animals survived
